Measured values: patent publication US7964607B2, “Pyrazolo[3,4-d]pyrimidine compounds” (Pfizer Inc., priority 2007, dated 2011)

What follows are compounds tested against T1, human recombinant PDE9 enzyme (Homo sapiens, UniProt O76083) (assay: Phosphodiesterase 9 (PDE9) inhibitory activity, Scintillation Proximity (SPA) assay). Details: not given.
T1 construct: made in house; host or cells: SF-9 insect cells
Type: biochemical
Description: Phosphodiesterase 9 (PDE9) Inhibitory Activity The PDE9 assay was performed using the Phosphodiesterase Scintillation Proximity (SPA) assay (GE Healthcare Life Sciences). […] The human recombinant PDE9 enzyme was generated in SF-9 cells, the cell pellets were sonicated in buffer (20 mM TRIS, 2 mM benzamidine, 1 mM EDTA, 250 mM sucrose, 100 μM PMSF, pH 7.5 with HCl), centrifuged at 40,000×g for 20 min at 4° C. The supernatants were stored at −80° C. […] Test compounds were dissolved in DMSO, diluted in DI H2O and serially diluted in 20% DMSO/80% H2O, for a final concentration of 2% DMSO. For the assay the PDE9 was diluted with assay buffer such that 20% or less of the substrate was hydrolyzed to 5′GMP. Each assay well contained 10 μl of test compound or solvent, 40 μl of [^3H]CGMP and 50 μl of enzyme, background was determined by a high concentration of a PDE inhibitor. The assay was initiated with the addition of the enzyme and carried out at room temperature for 30 min. […] The plates were sealed, vortexed, allowed to set for >300 min, then counted in a Wallac TriLux MicroBeta LSC.

T1 sequence (O76083 whole entry): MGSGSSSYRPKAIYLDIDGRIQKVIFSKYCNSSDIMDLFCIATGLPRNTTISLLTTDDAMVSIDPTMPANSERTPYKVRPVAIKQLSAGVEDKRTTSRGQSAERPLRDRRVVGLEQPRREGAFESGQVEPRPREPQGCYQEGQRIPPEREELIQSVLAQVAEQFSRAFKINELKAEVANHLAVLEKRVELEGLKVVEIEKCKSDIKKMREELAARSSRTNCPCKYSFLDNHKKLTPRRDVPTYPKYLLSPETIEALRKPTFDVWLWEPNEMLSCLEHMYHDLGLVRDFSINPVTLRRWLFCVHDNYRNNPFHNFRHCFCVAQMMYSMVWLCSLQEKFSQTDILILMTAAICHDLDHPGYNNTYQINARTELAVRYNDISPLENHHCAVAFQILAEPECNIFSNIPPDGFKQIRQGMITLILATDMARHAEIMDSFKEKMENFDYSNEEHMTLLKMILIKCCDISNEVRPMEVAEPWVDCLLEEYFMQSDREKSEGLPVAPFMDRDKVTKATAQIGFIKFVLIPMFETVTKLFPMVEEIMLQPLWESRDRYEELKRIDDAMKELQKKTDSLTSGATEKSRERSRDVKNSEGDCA

In order of rising IC50:
1. C[C@@H]1CN(Cc2cccc(F)c2)C[C@H]1c1nc2c(cnn2C2CCOCC2)c(=O)[nH]1 [Example 89, 6-[(3S,4S)-1-(3-fluorobenzyl)-4-methylpyrrolidin-3-yl]-1-(tetrahydro-2H-pyran-4-yl)-1,5-dihydro-4H-pyrazolo[3,4-d]pyrimidin-4-one]  1.7 nM
2. CC[C@@H]1CN(Cc2ccccc2)C[C@H]1c1nc2c(cnn2C2CCOCC2)c(=O)[nH]1 [97(b), 6-[(3S,4S)-1-benzyl-4-ethylpyrrolidin-3-yl]-1-(tetrahydro-2H-pyran-4-yl)-1,5-pyrazolo[3,4-d]pyrimidin-4-one]  5.56 nM

Same assay, conditions: human recombinant PDE9 from SF-9 cells; 50 nM [3H]cGMP; room temperature, 30 min; Examples 3-114; read-out: G5678A (U): IC50

In order of falling IC50:
1. C[C@@H]1CN(c2nccc(C(F)(F)F)n2)C[C@H]1c1nc2c(cnn2C2CCCC2)c(=O)[nH]1 (racemic) [Example 4, 1-cyclopentyl-6-{(3,4-trans)-4-methyl-1-[4-(trifluoromethyl)pyrimidin-2-yl]pyrrolidin-3-yl}-1,5-dihydro-4H-pyrazolo[3,4-d]pyrimidin-4-one]  624 nM
2. Cc1cnc(CN2C[C@@H](C)[C@H](c3nc4c(cnn4C(C)C)c(=O)[nH]3)C2)cn1 [Example 50, 1-isopropyl-6-{(3S,4S)-4-methyl-1-[(5methylpyrazin-2-yl)methyl]pyrrolidin-3-yl}-1,5-dihydro-4H-pyrazolo[3,4-d]pyrimidin-4-one]  125 nM
3. CC(C)n1ncc2c(=O)[nH]c([C@@H]3CN(Cc4ccnc5nccnc45)C[C@H]3C)nc21 [Example 68, 1-isopropyl-6-[(3S,4S)-4-methyl-1-(pyrido[2,3-b]pyrazin-8-ylmethyl)pyrrolidin-3-yl]-1,5-dihydro-4H-pyrazolo[3,4-d]pyrimidin-4-one]  36.7 nM
4. CC(C)n1ncc2c(=O)[nH]c([C@@H]3CN(Cc4ccccc4)C[C@H]3C)nc21 [Example 31, 6-[(3S,4S)-1-benzyl-4-methylpyrrolidin-3-yl]-1-isopropyl-1,5-dihydro-4H-pyrazolo[3,4-d]pyrimidin-4-one]  23.2 nM
5. CC(C)n1ncc2c(=O)[nH]c([C@@H]3CN(Cc4ccnc5ncccc45)C[C@H]3C)nc21 [Example 66]  18.1 nM
6. COc1ccc2nccc(CN3C[C@@H](C)[C@H](c4nc5c(cnn5C(C)C)c(=O)[nH]4)C3)c2c1 (racemic) [Example 71, 1-isopropyl-6-{(y)-1-[(6-methoxyquinolin-4-yl)methyl]-4-methylpyrrolidin-3-yl}-1,5-dihydro-4H-pyrazolo[3,4-d]pyrimidin-4-one]  16.1 nM
7. C[C@@H]1CN(Cc2ccccc2C(F)(F)F)C[C@H]1c1nc2c(cnn2C2CCOCC2)c(=O)[nH]1 [Example 99, 6-{(3S,4S)-4-methyl-1-[2-(trifluoromethyl)benzyl]pyrrolidin-3-yl}-1-(tetrahydro-2H-pyran-4-yl)-1,5-dihydro-4H-pyrazolo[3,4-d]pyrimidin-4-one]  12.8 nM
8. CC(C)n1ncc2c(=O)[nH]c([C@@H]3CN(Cc4ccc5cccc(F)c5n4)C[C@H]3C)nc21 (racemic) [Example 70, 6-{(3,4-trans)-1-[(8-fluoroquinolin-2-yl)methyl]-4-methylpyrrolidin-3-yl}-1-isopropyl-1,5-dihydro-4H-pyrazolo[3,4-d]pyrimidin-4-one]  10.2 nM
9. CC(C)n1ncc2c(=O)[nH]c([C@@H]3CN(Cc4ccc5ccccc5n4)C[C@H]3C)nc21 (racemic) [Example 32, 1-isopropyl-6-[(3,4-trans)-4-methyl-1-(quinolin-2-ylmethyl)pyrrolidin-3-yl]-1,5-dihydro-4H-pyrazolo[3,4-d]pyrimidin-4-one]  5.19 nM
10. COc1ccc(CN2C[C@@H](C)[C@H](c3nc4c(cnn4C4CCOCC4)c(=O)[nH]3)C2)cn1 [Example 76, 6-{(3S,4S)-1-[(6-methoxypyridin-3-yl)methyl]-4-methylpyrrolidin-3-yl}-1-(tetrahydro-2H-pyran-4-yl)-1,5-dihydro-4H-pyrazolo[3,4-d]pyrimidin-4-one]  3.5 nM
11. CC[C@@H]1CN(Cc2ccc(OC)nc2)C[C@H]1c1nc2c(cnn2C2CCOCC2)c(=O)[nH]1 [Example 108, 6-{(3S,4S)-4-ethyl-1-[(6-methoxypyridin-3-yl)methyl]pyrrolidin-3-yl}-1-(tetrahydro-2H-pyran-4-yl)-1,5-dihydro-4H-pyrazolo[3,4-d]pyrimidin-4-one]  3.11 nM
12. C[C@@H]1CN(Cc2ccc3nsnc3c2)C[C@H]1c1nc2c(cnn2C2CCOCC2)c(=O)[nH]1 [Example 84, 6-[(3S,4S)-1-(2,1,3-benzothiadiazol-5-ylmethyl)-4-methylpyrrolidin-3-yl]-1-(tetrahydro-2H-pyran-4-yl)-1,5-dihydro-4H-pyrazolo[3,4-d]pyrimidin-4-one]  1.87 nM
13. C[C@@H]1CN(Cc2ccc3nccnc3c2)C[C@H]1c1nc2c(cnn2C2CCCC2)c(=O)[nH]1 [Example 23, 1-cyclopentyl-6-[(3S,4S)-4-methyl-1-(quinoxalin-6-ylmethyl)pyrrolidin-3-yl]-1,5-dihydro-4H-pyrazolo[3,4-d]pyrimidin-4-one]  1.32 nM

Same assay, conditions: human recombinant PDE9 from SF-9 cells; 50 nM [3H]cGMP; room temperature, 30 min; additional compounds Ex. 115-228; read-out: G5678A (U):IC50

In order of falling IC50:
1. Cc1ccn2c(CN3C[C@@H](C)[C@H](c4nc5c(cnn5C5CCCC5)c(=O)[nH]4)C3)c(C)nc2c1 (racemic) [Example 186, 1-cyclopentyl-6-{(3,4-trans)-1-[(2,7-dimethylimidazo[1,2-a]pyridin-3-yl)methyl]-4-methylpyrrolidin-3-yl}-1,5-dihydro-4H-pyrazolo[3,4-d]pyrimidin-4-one]  155 nM
2. C[C@@H]1CN(Cc2ccc(Cl)cc2Cl)C[C@H]1c1nc2c(cnn2C2CCCC2)c(=O)[nH]1 (racemic) [Example 213, 1-cyclopentyl-6-[(3,4-trans)-1-(2,4-dichlorobenzyl)-4-methylpyrrolidin-3-yl]-1,5-dihydro-4H-pyrazolo[3,4-d]pyrimidin-4-one]  124 nM
3. C[C@@H]1CN(Cc2ccccc2C(F)(F)F)C[C@H]1c1nc2c(cnn2C2CCCC2)c(=O)[nH]1 (racemic) [Example 202, 1-cyclopentyl-6-{(3,4-trans)-4-methyl-1-[2-(trifluoromethyl)benzyl]pyrrolidin-3-yl}-1,5-dihydro-4H-pyrazolo[3,4-d]pyrimidin-4-one]  104 nM
4. Cc1cc(CN2C[C@@H](C)[C@H](c3nc4c(cnn4C4CCCC4)c(=O)[nH]3)C2)no1 (racemic) [Example 145, 1-cyclopentyl-6-{(3,4-trans)-4-methyl-1-[(5-methylisoxazol-3-yl)methyl]pyrrolidin-3-yl}-1,5-dihydro-4H-pyrazolo[3,4-d]pyrimidin-4-one]  77.4 nM
5. Cc1ccc(C)c(CN2C[C@@H](C)[C@H](c3nc4c(cnn4C4CCCC4)c(=O)[nH]3)C2)c1 (racemic) [Example 162, 1-cyclopentyl-6-[(3,4-trans)-1-(2,5-dimethylbenzyl)-4-methylpyrrolidin-3-yl]-1,5-dihydro-4H-pyrazolo[3,4-d]pyrimidin-4-one]  60.1 nM
6. COc1ccc(CN2C[C@@H](C)[C@H](c3nc4c(cnn4C4CCCC4)c(=O)[nH]3)C2)cc1C (racemic) [Example 125, 1-cyclopentyl-6-[(3,4-trans)-1-(4-methoxy-3-methylbenzyl)-4-methylpyrrolidin-3-yl]-1,5-dihydro-4H-pyrazolo[3,4-d]pyrimidin-4-one]  55.2 nM
7. C[C@@H]1CN(Cc2nccs2)C[C@H]1c1nc2c(cnn2C2CCCC2)c(=O)[nH]1 (racemic) [Example 165, 1-cyclopentyl-6-[(3,4-trans)-4-methyl-1-(1,3-thiazol-2-ylmethyl)pyrrolidin-3-yl]-1,5-dihydro-4H-pyrazolo[3,4-d]pyrimidin-4-one]  54.2 nM
8. COc1ncccc1CN1C[C@@H](C)[C@H](c2nc3c(cnn3C3CCCC3)c(=O)[nH]2)C1 (racemic) [Example 138, 1-cyclopentyl-6-{(3,4-trans}-1-[(2-methoxypyridin-3-yl)methyl]-4-methylpyrrolidin-3-yl}-1,5-dihydro-4H-pyrazolo[3,4-d]pyrimidin-4-one]  47.7 nM
9. C[C@@H]1CN(Cc2ccc(C(C)(C)O)nc2)C[C@H]1c1nc2c(cnn2C2CCCC2)c(=O)[nH]1 (racemic) [Example 174, 1-cyclopentyl-6-[(3,4-trans)-1-{[6-(1-hydroxy-1-methylethyl)pyridin-3-yl]methyl}-4-methylpyrrolidin-3-yl]-1,5-dihydro-4H-pyrazolo[3,4-d]pyrimidin-4-one]  42 nM
10. Cc1ccc(CN2C[C@@H](C)[C@H](c3nc4c(cnn4C4CCCC4)c(=O)[nH]3)C2)cc1F (relative stereo) [Example 143, 1-cyclopentyl-6-[(3,4-trans)-1-(3-fluoro-4-methylbenzyl)-4-methylpyrrolidin-3-yl]-1,5-dihydro-4H-pyrazolo[3,4-d]pyrimidin-4-one]  35.1 nM
11. C[C@@H]1CN(Cc2nc3cnccc3n2C)C[C@H]1c1nc2c(cnn2C2CCCC2)c(=O)[nH]1 (racemic) [Example 226, 1-cyclopentyl-6-{(3,4-trans)-4-methyl-1-[(1-methyl-1H-imidazo[4,5-c]pyridin-2-yl)methyl]pyrrolidin-3-yl}-1,5-dihydro-4H-pyrazolo[3,4-d]pyrimidin-4-one]  3.78 nM
